Source: US11370785B2, “Multicyclic compounds as farnesoid X receptor modulators” (BRISTOL-MYERS SQUIBB COMPANY, priority 2017, dated 2022)
Where two headings read alike, the source gives them in different places.

Target: T1, human FXR (Homo sapiens, UniProt Q96RI1)
T1 construct: expressed in transfected cells; host or cells: HEK293 cells stably carrying a 5xGal4-response-element firefly luciferase reporter, transiently transfected with the pcDNA3.1-Gal4-FXR plasmid
T1 sequence (Q96RI1 262-486 limits assumed): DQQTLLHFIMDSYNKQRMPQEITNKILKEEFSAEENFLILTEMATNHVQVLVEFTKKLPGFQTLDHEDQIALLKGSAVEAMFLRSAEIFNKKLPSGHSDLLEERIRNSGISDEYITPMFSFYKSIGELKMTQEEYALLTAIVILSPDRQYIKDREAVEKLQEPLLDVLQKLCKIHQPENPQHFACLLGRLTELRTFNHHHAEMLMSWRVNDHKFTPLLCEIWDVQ
Experiment: transient human FXR/Gal4-luciferase reporter assay
Type: cell-based
Settings: Gal4-hFXR reporter in HEK293 cells
Protocol: The exemplified compounds of the present invention were tested in the transient human FXR/Gal4-luciferase reporter assay, and assay results were reported in Table 1 together with other analytical data.
A Gal4-hFXR fusion construct reporter system was used as the primary assay to characterize compound activity. A construct including 5 copies of the Gal4 promoter response element upstream of a firefly luciferase reporter cDNA was stably expressed in HEK293 cells. This reporter cell line was maintained in Dulbecco's Modified Eagle's medium (DMEM; Gibco) supplemented with 1% penicillin-streptomycin (P/S) solution, 500 μg/mL Zeocin and 10% charcoal/dextran-treated fetal bovine serum (cs-FBS) at 37° C. in a humidified 5% CO2 atmosphere. Another plasmid was constructed in which the human cytomegalovirus promoter in the pcDNA3.1 vector directs the expression of the cDNA encoding a fusion protein comprised of the DNA binding domain from the Gal4 transcription factor fused to the ligand binding domain from human FXR.
The day prior to transfection, the reporter cells in culture are detached from the plate with trypsin and plated into a T75 flask at a sufficient density to achieve approximately 90% confluence the next morning. The transfection reagents are prepared by separately diluting 25 μg of the pcDNA3.1-Gal4-FXR plasmid into 1.87 mL of Opti-MEM (Thermo-Fisher), and 40 μL of Lipofectamine 2000 (Thermo-Fisher) into 1.87 mL of Opti-MEM, and then adding the diluted DNA solution into the diluted Lipofectamine 2000 solution and incubating at room temperature for 15-20 minutes. The mixture is further diluted with 10 mL of a solution comprised of DMEM, 10% cs-FBS, and 1% P/S immediately prior to transferring to the cells. The maintenance culture media is aspirated from the cells and the final transfection mixture is added before the cells are incubated overnight at 37° C. in a humidified 5% CO2 atmosphere. This protocol can be scaled up, and the transiently transfected cells can be cryopreserved in an assay-ready format.
For compound testing, 100 nL of the compounds (serial dilutions in DMSO) are dispensed with an Echo acoustic dispenser (Labcyte) into the wells of a Corning/Costar clear bottom 384-well white plate. The transfected cells are harvested, counted, and diluted such that 10-25,000 cells in 25 μL are plated into each well of the 384-well compound assay plate. The compound-treated cells are incubated overnight at 37° C. in a humidified 5% CO2 atmosphere. The next morning 25 μL of Steady-Glo (Promega) are added to each well of the plate, the mixture is incubated for 15 min. with shaking, and luminescence is measured on an Envision (Perkin Elmer) plate reader. Background counts from cells treated with DMSO alone are subtracted from all raw counts, and the corrected values are converted to a percentage of the control response attained with 8 μM GW-4064.

[1] = relative to 8 μM GW-4064, read-out: FXR EC50

Row | Compound | EC50 [1] [nM] | EC50 (read-out: HLE GAL-FXR EC50) [nM]
1 | O=C(O)c1ccc(N2CCC3(CC2)CC(=Cc2c(C4CC4)cnn2-c2c(Cl)cccc2Cl)C3)nc1 [Example 22] | 4700 | 
2 | O=C(O)c1cc(F)c2nc(N3CCC4(CC3)CC(=Cc3c(-c5c(Cl)cccc5Cl)noc3C3CC3)C4)sc2c1 [Example 1, 2-(2-((5-Cyclopropyl-3-(2,6-dichlorophenyl)isoxazol-4-yl)methylene)-7-azaspiro[3.5]nonan-7-yl)-4-fluorobenzo[d]thiazole-6-carboxylic acid] |  | 41
3 | O=C(O)c1ccc(N2CCC3(CC2)CC(=Cc2c(-c4c(Cl)cccc4Cl)noc2C2CC2)C3)cc1 [Example 66] | 693 | 
4 | O=C(O)c1ccc(N2CCC3(CC2)CC(Nc2c(-c4c(Cl)cccc4Cl)noc2C2CC2)C3)nn1 [Example 15] | 1820 | 
5 | COc1cc(N2CCC3(CC2)CC(Cc2c(-c4c(Cl)cccc4Cl)noc2C2CC2)C3)ccc1OCC(=O)O [Example 93] | 505 | 
6 | Cc1cccc(Cl)c1-c1noc(C2CC2)c1C=C1CC2(CCN(c3ccc4nc(C(=O)O)ccc4c3)CC2)C1 [Example 56] | 152 | 
7 | COc1cc(C(=O)O)nc2ccc(N3CCC4(CC3)CC(=Cc3c(C(C5CC5)C5CC5)noc3C3CC3)C4)cc12 [Example 107] | 1550 | 
8 | Cc1nc(C(=O)O)c2ccc(N3CCC4(CC3)CC(=Cc3c(-c5ccccc5C(F)(F)F)noc3C3CC3)C4)cn12 [Example 74] | 114 | 
9 | Cn1cc(C(=O)O)c2cnc(N3CCC4(CC3)CC(Nc3c(-c5c(Cl)cccc5Cl)noc3C3CC3)C4)nc21 [Example 19] | 305 | 
10 | COc1cc2nc(N3CCC4(CC3)CC(Cc3c(-c5ccccc5C(F)(F)F)noc3C3CC3)C4)sc2cc1C(=O)O [Example 105] | 228 | 
11 | O=C(O)c1ccc2nc(N3CCC4(CC3)CC(=Cc3c(-c5ccccc5C(F)(F)F)noc3C3CC3)C4)sc2n1 [Example 113] | 1240 | 
12 | O=C(O)c1cc(C(F)(F)F)cc(N2CCC3(CC2)CC(Cc2c(-c4ccccc4C(F)(F)F)noc2C2CC2)C3)n1 [Example 163] | 1270 | 
13 | CC(O)Cc1cc(C(=O)O)nc2ccc(N3CCC4(CC3)CC(Cc3c(-c5ccccc5C(F)(F)F)noc3C3CC3)C4)cc12 (centres unmarked) [Example 147] | 160 | 
14 | O=C(O)c1cc(F)c2nc(N3CCC4(CC3)CC(Nc3c(-c5ccccc5OC(F)(F)F)noc3C3CC3)C4)sc2c1 [Example 18] | 77 | 
15 | O=C(O)c1ccc(S(=O)(=O)N2CCC3(CC2)CC(Cc2c(-c4c(Cl)cccc4Cl)noc2C2CC2)C3)cc1 [Example 174] | 540 | 
16 | CCOc1cc(C(N)=O)ncc1N1CCC2(CC1)CC(=Cc1c(-c3c(Cl)cncc3Cl)noc1C1CC1)C2 [Example 146] | 112 | 
17 | Cc1cccc(Cl)c1-c1noc(C2CC2)c1C=C1CC2(CCN(S(=O)(=O)c3ccc(C(=O)O)cc3)CC2)C1 [Example 10, 4-((2-((3-(2-Chloro-6-methylphenyl)-5-cyclopropylisoxazol-4-yl)methylene)-7-azaspiro[3.5]nonan-7-yl)sulfonyl)benzoic acid] |  | 321
18 | O=C(O)c1ccc(N2CCC3(CC2)CC(=Cc2c(C4CC4)nnn2-c2c(Cl)cccc2Cl)C3)nc1 [Example 21] | 5280 | 
19 | O=C(O)c1cc(OC2COC2)c2cc(N3CCC4(CC3)CC(=Cc3c(-c5ccccc5C(F)(F)F)noc3C3CC3)C4)ccc2n1 [Example 137] | 78 | 
20 | CC(=O)Nc1ncc(S(=O)(=O)N2CCC3(CC2)CC(Cc2c(-c4c(Cl)cccc4Cl)noc2C2CC2)C3)s1 [Example 176] | 840 | 
21 | O=C(O)c1cc2ccc(N3CCC4(CC3)CC(=Cc3c(-c5c(Cl)cccc5Cl)noc3C3CC3)C4)cc2nn1 [Example 54] | 267 | 
22 | Cc1cccc(Cl)c1-c1noc(C2CC2)c1C=C1CC2(CCN(S(=O)(=O)c3cccc(C(=O)O)c3)CC2)C1 [Example 63] | 661 | 
23 | NC(=O)c1cc(OC2CCC2)c2cc(N3CCC4(CC3)CC(Cc3c(-c5ccccc5C(F)(F)F)noc3C3CC3)C4)ccc2n1 [Example 171] | 450 | 
24 | CC(C)(C)OC(=O)N1c2ccc(N3CCC4(CC3)CC(=Cc3c(-c5ccccc5OC(F)(F)F)noc3C3CC3)C4)cc2CCC1C(=O)O (centres unmarked) [Example 111] | 481 | 
25 | O=C(O)c1ccc(CCN2CCC3(CC2)CC(=Cc2c(-c4c(Cl)cccc4Cl)noc2C2CC2)C3)cc1 [Example 44] | 765 | 
26 | CCOC(=O)c1cc(C(F)(F)F)c2cc(N3CCC4(CC3)CC(Cc3c(-c5ccccc5C(F)(F)F)noc3C3CC3)C4)ccc2n1 [Example 129] | 125 | 
27 | Cn1cc(C(=O)O)c2ccc(N3CCC4(CC3)CC(=Cc3c(-c5ccccc5OC(F)(F)F)noc3C3CC3)C4)nc21 [Example 28] | 229 | 

Next, values leading:

Row | EC50 [1] [nM] | EC50 (read-out: HLE GAL-FXR EC50) [nM] | Compound
28 | 40 |  | O=C(O)c1cn(C(F)F)c2cc(N3CCC4(CC3)CC(=Cc3c(-c5c(Cl)cncc5Cl)noc3C3CC3)C4)ccc12 [Example 77]
29 | 3 |  | O=C(O)c1cc(OC(F)F)c2cc(N3CCC4(CC3)CC(=Cc3c(-c5c(Cl)cncc5Cl)noc3C3CC3)C4)ccc2n1 [Example 81]
30 | 12 |  | O=C(O)c1cc(C(F)(F)F)c2cc(N3CCC4(CC3)CC(=Cc3c(-c5ccccc5C(F)(F)F)noc3C3CC3)C4)ccc2n1 [Example 30]
31 | 21 |  | COc1cc(C(=O)O)nc2ccc(N3CCC4(CC3)CC(=Cc3c(-c5ccccc5C(F)(F)F)noc3C3CC3)C4)cc12 [Example 72]
32 | 14 |  | COc1cc(C(=O)O)nc2ccc(N3CCC4(CC3)CC(=Cc3c(-c5c(Cl)cncc5Cl)noc3C3CC3)C4)cc12 [Example 76]
33 | 18 |  | O=C(O)c1cc(C(F)(F)F)c2cc(N3CCC4(CC3)CC(=Cc3c(-c5c(Cl)cncc5Cl)noc3C3CC3)C4)ccc2n1 [Example 73]
34 | 6 |  | O=C(O)c1cc(OCC(F)F)c2cc(N3CCC4(CC3)CC(Cc3c(-c5ccccc5C(F)(F)F)noc3C3CC3)C4)ccc2n1 [Example 149]
35 | 47 |  | O=C(O)c1cc(C(F)(F)F)c2cc(N3CCC4(CC3)CC(=Cc3c(-c5ccccc5C(F)(F)F)noc3C(F)(F)F)C4)ccc2n1 [Example 167]
36 | 18 |  | CCOc1cc(C(=O)O)nc2ccc(N3CCC4(CC3)CC(=Cc3c(-c5ccccc5C(F)(F)F)noc3C3CC3)C4)cc12 [Example 100]
37 | 72 |  | O=C(O)c1cc(F)c2nc(N3CCC4(CC(=Cc5c(-c6c(Cl)cccc6Cl)noc5C5CC5)C4)C3)sc2c1 (centres unmarked) [Example 131]
38 | 16 |  | O=C(O)c1cc(OC2CCCC2)c2cc(N3CCC4(CC3)CC(Cc3c(-c5ccccc5OC(F)(F)F)noc3C3CC3)C4)ccc2n1 [Example 122]
39 | 33 |  | COCc1onc(-c2c(Cl)cncc2Cl)c1C=C1CC2(CCN(c3ccc4nc(C(=O)O)cc(C(F)(F)F)c4c3)CC2)C1 [Example 158]
40 | 14 |  | O=C(O)c1cc(OC2CCC2)c2cc(N3CCC4(CC3)CC(=Cc3c(-c5c(Cl)cncc5Cl)noc3C3CC3)C4)ccc2n1 [Example 124]
41 | 6 |  | O=C(O)c1cc(O[C@H]2CCOC2)c2cc(N3CCC4(CC3)CC(Cc3c(-c5ccccc5C(F)(F)F)noc3C3CC3)C4)ccc2n1 [Example 152]
42 | 6 |  | O=C(O)c1nc(C(F)(F)F)n2cc(N3CCC4(CC3)CC(=Cc3c(-c5ccccc5C(F)(F)F)noc3C3CC3)C4)ccc12 [Example 33]
43 | 38 |  | COCCOc1cc(C(=O)O)nc2ccc(N3CCC4(CC3)CC(=Cc3c(-c5ccccc5C(F)(F)F)noc3C3CC3)C4)cc12 [Example 98]
44 | 5 |  | CC(C)Oc1cc(C(=O)O)nc2ccc(N3CCC4(CC3)CC(=Cc3c(-c5ccccc5C(F)(F)F)noc3C3CC3)C4)cc12 [Example 83]
45 | 14 |  | O=C(O)c1cc(OC2CCC2)c2cc(N3CCC4(CC3)CC(Cc3c(-c5ccccc5OC(F)(F)F)noc3C3CC3)C4)ccc2n1 [Example 116]
46 | 34 |  | O=C(c1cc(OC2CCC2)c2cc(N3CCC4(CC3)CC(Cc3c(-c5ccccc5C(F)(F)F)noc3C3CC3)C4)ccc2n1)N1CCCCC1 [Example 189]
47 | 65 |  | COc1cc(C(=O)O)nc2ccc(N3CCC4(CC3)CC(=Cc3c(-c5ccccc5OC(F)(F)F)noc3C3CC3)C4)cc12 [Example 70]
